We go through eight compounds from patent US5750522A, “Pyrrolo[1,2-d] [1,2,4]triazine derivatives” (American Home Products Corporation, priority 1996, dated 1998).

Structures can show the parent of a compound that is named as a salt.

One series deals with ml muscarinic receptor (Homo sapiens, UniProt P11229). Description: biochemical. Format: binding.
In series [1] the target is T1, M1 acetylcholine receptors (ml receptors in CHO cells) (Homo sapiens, UniProt P11229).
T1 sequence (P11229 1-460): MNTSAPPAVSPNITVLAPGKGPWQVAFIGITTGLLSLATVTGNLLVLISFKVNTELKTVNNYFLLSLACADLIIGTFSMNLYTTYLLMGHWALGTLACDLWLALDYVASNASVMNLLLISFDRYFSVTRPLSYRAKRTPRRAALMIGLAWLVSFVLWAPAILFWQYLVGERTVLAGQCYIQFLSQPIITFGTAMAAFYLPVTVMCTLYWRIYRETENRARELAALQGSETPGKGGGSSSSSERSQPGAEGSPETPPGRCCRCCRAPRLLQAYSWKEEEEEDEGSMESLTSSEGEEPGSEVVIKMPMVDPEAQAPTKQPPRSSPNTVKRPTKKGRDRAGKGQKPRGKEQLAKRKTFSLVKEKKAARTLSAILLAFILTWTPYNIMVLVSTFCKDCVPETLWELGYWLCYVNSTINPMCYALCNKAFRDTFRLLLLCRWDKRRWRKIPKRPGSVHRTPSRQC
Description: cell-based. The conditions noted are these: at 30x Ki (μM), carb = 100%, 1 h, 37° C., read-out: % PI Hydrolysis ml receptors in CHO cells.

In a further series the test system is ml receptors. The conditions noted are these: background statement; cited from earlier work.
For series [2] the following is noted: quaternary ammonium group; background statement; cited from earlier work.
For series [3], the system named is patients with mild to moderate Alzheimer's disease. To be noted: especially at the higher doses where it is most effective; cited from earlier work.
Series [4] shares this test system. The conditions noted are these: cited from earlier work.
For series [5] the following is noted: continuous infusion over 2 weeks used because of it; cited from earlier work.

`Cc1nnc(NC2CN3CCC2CC3)n2cccc12` (stereo not shown) [Example 4, (1-Azabicyclo[2.2.2]oct-3-yl)-1-methylpyrrolo[1,2-d][1,2,4]triazin-4-ylamine dihydrochloride]: the IC50 on ml muscarinic receptor amounted to 20.2 µM.
In the case of `Cc1nnc(NCCN2CC3CCC(CC3)C2)n2cccc12` [Example 3, [4-(3-Azabicyclo[3.2.2]non-3-yl)ethyl]-(1-methylpyrrolo[1,2-d][1,2,4]triazin-4-yl)amine dihydrochloride], the Emax in series [1] was 24%. On ml muscarinic receptor, this compound displayed a Ki of 4450 nM.
Consider `C[N+](C)(C)CCOC(N)=O` [carbachol], for which the “activation of ml receptors” value in the series on ml receptors was “able to fully activate ml receptors”. Moreover, in series [2], the “ability to enter the CNS” value is listed as “not able to enter the CNS”.
Regarding `Nc1c2c(nc3ccccc13)CCCC2` [tacrine], in series [3], the adverse side effects result is listed as “adverse side effects especially at the higher doses where it is most effective”. Further, the improvement in memory result in series [4] is reported as “improvement in memory can be shown in patients with mild to moderate Alzheimer's disease”.
Take `C[C@@H]1O[C@H](C[N+](C)(C)C)C[C@H]1O` [muscarine]: the “activation of ml receptors” value with ml receptors was “able to fully activate ml receptors”. Also, the “ability to enter the CNS” value in series [2] is given as “not able to enter the CNS”.
Consider `Cc1nnc(NCCCN2CC3CCC(CC3)C2)n2cccc12` [Example 2, [4-(3-Azabicyclo[3.2.2.]-3-propyl]-(1-methylpyrrolo[1,2-d][1,2,4]triazin-4-yl)aminedihydrochloride], for which affinity at ml muscarinic receptor was put at a Ki of 1390 nM.
As to `COC(=O)C1=CCCN(C)C1` [arecoline], the improvement in memory entry in series [4] is recorded as “memory improvement in patients with mild to moderate Alzheimer's disease”. In series [5], the half-life entry is “short half-life”.
Take `Cc1nnc(NCCCCN2CC3CCC(CC3)C2)n2cccc12` [Example 1, [4-(3-Azabicyclo[3.2.2]-3-yl)-butyl]-(1-methylpyrrolo[1,2-d][1,2,4]triazin-4-yl)amine dihydrochloride]: affinity at ml muscarinic receptor was put at a Ki of 310 nM. This counts as sub-micromolar.
